Legend:
[1] = target: T1, 3-phosphoinositide-dependent protein kinase 1 (Homo sapiens, UniProt O15530); test: Inhibition of PDK1
T1 sequence (O15530 whole entry): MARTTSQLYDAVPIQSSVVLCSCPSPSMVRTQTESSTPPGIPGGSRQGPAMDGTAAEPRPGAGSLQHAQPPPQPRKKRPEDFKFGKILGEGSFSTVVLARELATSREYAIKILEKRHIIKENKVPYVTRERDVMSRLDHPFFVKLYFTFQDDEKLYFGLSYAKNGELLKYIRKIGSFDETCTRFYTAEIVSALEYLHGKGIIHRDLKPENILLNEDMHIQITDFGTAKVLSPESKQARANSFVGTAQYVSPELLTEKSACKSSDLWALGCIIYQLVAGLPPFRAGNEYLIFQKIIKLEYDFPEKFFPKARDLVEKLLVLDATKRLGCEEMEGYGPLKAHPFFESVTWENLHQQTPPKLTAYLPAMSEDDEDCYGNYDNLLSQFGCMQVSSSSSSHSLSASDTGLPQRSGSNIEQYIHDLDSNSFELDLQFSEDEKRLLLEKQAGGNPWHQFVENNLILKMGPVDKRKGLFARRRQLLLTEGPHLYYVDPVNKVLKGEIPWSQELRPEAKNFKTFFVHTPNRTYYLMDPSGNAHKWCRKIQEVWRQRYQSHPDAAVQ

Aurora kinase A = target: T2, Aurora kinase A (Homo sapiens, UniProt O14965); test: Inhibition of aurora A
T2 sequence (O14965 whole entry): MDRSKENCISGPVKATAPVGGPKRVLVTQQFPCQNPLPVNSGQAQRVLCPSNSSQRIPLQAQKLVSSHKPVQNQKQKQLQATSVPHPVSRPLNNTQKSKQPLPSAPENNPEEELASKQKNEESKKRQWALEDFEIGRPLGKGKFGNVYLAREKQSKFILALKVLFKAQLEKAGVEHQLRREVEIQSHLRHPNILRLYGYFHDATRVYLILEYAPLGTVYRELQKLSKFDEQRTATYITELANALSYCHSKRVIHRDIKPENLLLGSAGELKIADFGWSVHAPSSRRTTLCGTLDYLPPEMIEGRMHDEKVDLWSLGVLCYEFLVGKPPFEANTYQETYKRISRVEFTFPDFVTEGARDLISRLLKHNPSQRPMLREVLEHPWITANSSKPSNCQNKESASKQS

Aurora kinase B = Aurora kinase B (Homo sapiens, UniProt Q96GD4); test: Inhibition of aurora B
Chain of Aurora kinase B (Q96GD4 whole entry): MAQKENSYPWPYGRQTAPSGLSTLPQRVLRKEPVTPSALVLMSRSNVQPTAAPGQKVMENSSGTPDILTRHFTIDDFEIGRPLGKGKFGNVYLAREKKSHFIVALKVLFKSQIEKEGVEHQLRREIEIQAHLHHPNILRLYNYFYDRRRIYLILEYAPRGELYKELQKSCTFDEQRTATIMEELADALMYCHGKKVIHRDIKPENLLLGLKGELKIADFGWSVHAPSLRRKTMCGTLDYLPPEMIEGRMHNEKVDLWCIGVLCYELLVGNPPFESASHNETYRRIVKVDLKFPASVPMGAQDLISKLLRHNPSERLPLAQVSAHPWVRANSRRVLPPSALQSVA

TGF-beta receptor type-1 = target: T3, TGF-beta receptor type-1 (Homo sapiens, UniProt P36897); test: Inhibition of ALK5; conditions: read-out: pIC50 (converted)
T3 sequence (P36897 whole entry): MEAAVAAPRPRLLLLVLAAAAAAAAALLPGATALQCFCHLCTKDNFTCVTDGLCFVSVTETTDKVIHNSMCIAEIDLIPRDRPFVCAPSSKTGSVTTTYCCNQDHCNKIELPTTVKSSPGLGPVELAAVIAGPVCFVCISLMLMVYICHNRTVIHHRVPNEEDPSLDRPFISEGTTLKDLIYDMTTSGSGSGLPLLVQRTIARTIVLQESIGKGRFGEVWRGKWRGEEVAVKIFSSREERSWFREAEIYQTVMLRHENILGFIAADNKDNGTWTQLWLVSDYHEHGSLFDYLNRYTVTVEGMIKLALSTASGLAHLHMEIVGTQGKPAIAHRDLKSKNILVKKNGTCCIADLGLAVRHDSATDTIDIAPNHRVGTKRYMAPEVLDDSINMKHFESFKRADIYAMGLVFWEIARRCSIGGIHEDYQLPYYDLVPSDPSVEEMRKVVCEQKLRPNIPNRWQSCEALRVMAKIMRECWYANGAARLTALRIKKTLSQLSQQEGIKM

[2] = target: Rho-associated protein kinase 1 (Homo sapiens, UniProt Q13464); test: Inhibition of ROCK1
Chain of Rho-associated protein kinase 1 (Q13464 whole entry): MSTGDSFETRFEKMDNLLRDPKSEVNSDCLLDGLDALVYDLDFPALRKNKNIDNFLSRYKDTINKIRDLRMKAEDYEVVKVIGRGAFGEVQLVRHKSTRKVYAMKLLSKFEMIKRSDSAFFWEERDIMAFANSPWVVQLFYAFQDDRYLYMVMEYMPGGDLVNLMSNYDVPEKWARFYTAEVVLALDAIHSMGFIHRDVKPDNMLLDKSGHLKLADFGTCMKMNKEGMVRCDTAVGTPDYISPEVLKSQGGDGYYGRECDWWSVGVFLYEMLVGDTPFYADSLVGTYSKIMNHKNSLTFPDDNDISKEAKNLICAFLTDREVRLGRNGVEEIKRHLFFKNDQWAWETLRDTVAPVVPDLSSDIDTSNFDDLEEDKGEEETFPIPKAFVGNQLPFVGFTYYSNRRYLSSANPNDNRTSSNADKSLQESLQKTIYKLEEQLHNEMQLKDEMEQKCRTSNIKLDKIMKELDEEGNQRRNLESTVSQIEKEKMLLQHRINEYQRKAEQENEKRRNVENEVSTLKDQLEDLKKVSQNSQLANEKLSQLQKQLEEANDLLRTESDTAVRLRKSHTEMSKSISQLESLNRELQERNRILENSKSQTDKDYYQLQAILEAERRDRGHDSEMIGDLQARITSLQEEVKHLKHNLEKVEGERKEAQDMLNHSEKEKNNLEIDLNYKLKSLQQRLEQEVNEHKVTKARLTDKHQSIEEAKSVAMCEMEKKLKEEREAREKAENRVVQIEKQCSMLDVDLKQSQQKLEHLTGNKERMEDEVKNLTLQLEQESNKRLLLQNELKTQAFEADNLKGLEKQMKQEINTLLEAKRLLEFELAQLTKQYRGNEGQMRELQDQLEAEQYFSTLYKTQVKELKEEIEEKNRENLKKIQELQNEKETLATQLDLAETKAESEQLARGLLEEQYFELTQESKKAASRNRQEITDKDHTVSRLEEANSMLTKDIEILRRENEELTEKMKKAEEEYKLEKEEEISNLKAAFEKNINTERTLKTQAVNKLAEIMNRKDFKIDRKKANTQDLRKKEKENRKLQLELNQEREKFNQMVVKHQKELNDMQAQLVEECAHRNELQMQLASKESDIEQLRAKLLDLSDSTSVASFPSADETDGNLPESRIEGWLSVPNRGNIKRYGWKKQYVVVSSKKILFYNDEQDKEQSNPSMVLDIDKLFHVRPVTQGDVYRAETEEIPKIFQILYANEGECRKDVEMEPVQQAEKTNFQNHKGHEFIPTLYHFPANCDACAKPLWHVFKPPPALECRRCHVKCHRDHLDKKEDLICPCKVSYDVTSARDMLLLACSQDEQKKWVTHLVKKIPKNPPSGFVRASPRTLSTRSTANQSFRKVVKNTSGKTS

[3] = target: T1, 3-phosphoinositide-dependent protein kinase 1; test: Inhibition of PDK1-mediated AKT phosphorylation at Thr308 residue in human PC3 cells by ELISA; assay type: cell-based, PC-3
[4] = target: T1, 3-phosphoinositide-dependent protein kinase 1; test: Inhibition of PDK1-mediated RSK phosphorylation at Ser221 residue in human PC3 cells by ELISA; assay type: cell-based, PC-3

Work on `CC(C)(C)OC(=O)N[C@H]1CCCN(c2cc(-c3ccc4c(N)n[nH]c4c3)nc(N)n2)C1` yielded an IC50 [1] of 1000 nM, an IC50 (Aurora kinase A) of 6310 nM and an IC50 (Aurora kinase B) of 316 nM. For the same compound, the IC50 (TGF-beta receptor type-1) was greater than 10 µM and the IC50 [2] was greater than 10 µM.

With `CCNc1cc(-c2ccc3c(N)[nH]nc3c2)nc(N)n1` the IC50 (Aurora kinase A) was 2510 nM, the IC50 (Aurora kinase B) was 10000 nM and the IC50 (TGF-beta receptor type-1) was 0.501 µM. The IC50 [2] was greater than 10 µM.

`Nc1nc(-c2ccc3c(N)n[nH]c3c2)cc(N2CCO[C@@H](C(=O)Nc3ccccc3)C2)n1` gave an IC50 [1] of 1000 nM, an IC50 (Aurora kinase A) greater than 10000 nM and an IC50 (Aurora kinase B) greater than 10000 nM. It also gave an IC50 (TGF-beta receptor type-1) greater than 10 µM and an IC50 [2] greater than 10 µM.

`CNc1cc(-c2ccc3c(N)n[nH]c3c2)nc(N)n1` was tested, and the IC50 [1] was 79.4 nM, the IC50 (Aurora kinase A) was 3160 nM and the IC50 (Aurora kinase B) was 12600 nM. For the same compound, the IC50 (TGF-beta receptor type-1) was 0.398 µM and the IC50 [2] was 7.94 µM.

For `CC(C)Nc1cc(-c2ccc3c(N)n[nH]c3c2)nc(N)n1`, the IC50 [1] was 126 nM, the IC50 (Aurora kinase A) was 2000 nM and the IC50 (Aurora kinase B) was 15800 nM. For the same compound, the IC50 (TGF-beta receptor type-1) was 0.501 µM and the IC50 [2] was greater than 10 µM.

`Nc1nc(NC2CCCC2)cc(-c2ccc3c(N)n[nH]c3c2)n1` showed an IC50 (Aurora kinase A) of 2510 nM, an IC50 (Aurora kinase B) of 7940 nM and an IC50 (TGF-beta receptor type-1) of 0.398 µM. For the same compound, the IC50 [2] was 6.31 µM.

For `C[C@@H]1CC[C@@H](C(=O)Nc2ccccc2)CN1c1cc(-c2ccc3c(N)n[nH]c3c2)nc(N)n1` (racemic), the IC50 (Aurora kinase B) was 2000 nM, the IC50 (TGF-beta receptor type-1) was greater than 10 µM and the IC50 [2] was greater than 10 µM.

In the case of `CC(C)(C)OC(=O)N[C@@H]1CCCN(c2cc(-c3ccc4c(N)n[nH]c4c3)nc(N)n2)C1`, the IC50 [1] is reported as 25.1 nM, the IC50 (Aurora kinase A) is reported as 1580 nM and the IC50 (Aurora kinase B) is reported as 5010 nM. The IC50 (TGF-beta receptor type-1) was greater than 10 µM and the IC50 [2] was greater than 10 µM.

In the case of `CN(C)c1nccc(-c2ccc3c(N)n[nH]c3c2)n1`, the IC50 [1] is reported as 20000 nM.

With `C[C@@H]1CO[C@H](C(=O)Nc2ccccc2)CN1c1cc(-c2ccc3c(N)n[nH]c3c2)nc(N)n1` the IC50 (Aurora kinase A) was 200 nM, the IC50 (Aurora kinase B) was 316 nM and the IC50 (TGF-beta receptor type-1) was greater than 10 µM. It also gave an IC50 [2] of 0.158 µM.

Work on `Nc1nc(-c2ccccc2)cc(-c2ccc3c(N)n[nH]c3c2)n1` yielded an IC50 [1] of 200 nM, an IC50 (Aurora kinase A) of 1580 nM and an IC50 (Aurora kinase B) of 2000 nM. For the same compound, the IC50 (TGF-beta receptor type-1) was 3.16 µM and the IC50 [2] was greater than 10 µM.

`Nc1nc(-c2ccc3c(N)n[nH]c3c2)cc(N2CCCC(NC(=O)c3ccccc3)C2)n1` (racemic) gave an IC50 [1] of 63.1 nM, an IC50 (Aurora kinase A) of 1260 nM and an IC50 (Aurora kinase B) of 25.1 nM. The IC50 (TGF-beta receptor type-1) was greater than 10 µM and the IC50 [2] was greater than 10 µM.

In the case of `Nc1nc(-c2ccc3c(N)n[nH]c3c2)cc(N2CCC[C@H](C(=O)NC3CCCCC3)C2)n1`, the IC50 [1] is reported as 63.1 nM, the IC50 (Aurora kinase A) is reported as greater than 10000 nM and the IC50 (Aurora kinase B) is reported as 3980 nM. For the same compound, the IC50 (TGF-beta receptor type-1) was greater than 10 µM and the IC50 [2] was 5.01 µM.

Compound `Nc1nc(-c2ccc3c(N)n[nH]c3c2)cc(N2CCC[C@@H](C(=O)Nc3ccccc3)C2)n1` has an IC50 [1] of 126 nM, an IC50 (Aurora kinase A) of 7940 nM and an IC50 (Aurora kinase B) of 1580 nM. It also gave an IC50 (TGF-beta receptor type-1) greater than 10 µM and an IC50 [2] of 3.16 µM.

For `C[C@@H]1CC[C@H](NC(=O)OC(C)(C)C)CN1c1cc(-c2ccc3c(N)n[nH]c3c2)nc(N)n1`, the IC50 (Aurora kinase A) was 2000 nM, the IC50 (Aurora kinase B) was 50.1 nM and the IC50 (TGF-beta receptor type-1) was greater than 10 µM. For the same compound, the IC50 [2] was greater than 10 µM.

With `C[C@@H]1C[C@@H](N(C)C(=O)CC(C)(C)C)CN(c2cc(-c3ccc4c(N)n[nH]c4c3)nc(N)n2)C1` the IC50 [1] was 0.631 nM, the IC50 (Aurora kinase A) was 63.1 nM and the IC50 (Aurora kinase B) was 200 nM. For the same compound, the IC50 (TGF-beta receptor type-1) was greater than 10 µM, the IC50 [2] was greater than 10 µM and the IC50 [3] was 22 nM. The IC50 [4] was 116 nM.

`Nc1nc(-c2ccc3c(N)[nH]nc3c2)cc(N2CCOCC2)n1` was tested, and the IC50 (Aurora kinase A) was greater than 10000 nM, the IC50 (Aurora kinase B) was greater than 10000 nM and the IC50 (TGF-beta receptor type-1) was greater than 10 µM. It also gave an IC50 [2] greater than 10 µM.

`Nc1nccc(-c2ccc3c(N)n[nH]c3c2)n1` gave an IC50 [1] of 398 nM, an IC50 (Aurora kinase A) of 398 nM and an IC50 (TGF-beta receptor type-1) of 1.58 µM. The IC50 [2] was 1.58 µM.

For `COc1cc(-c2ccc3c(N)n[nH]c3c2)nc(N)n1`, the IC50 [1] was 251 nM, the IC50 (Aurora kinase A) was 6310 nM and the IC50 (Aurora kinase B) was 7940 nM. The IC50 (TGF-beta receptor type-1) was 3.16 µM and the IC50 [2] was 5.01 µM.

In the case of `C[C@H]1CC[C@@H](NC(=O)OC(C)(C)C)CN1c1cc(-c2ccc3c(N)[nH]nc3c2)nc(N)n1` (racemic), the IC50 (Aurora kinase A) is reported as 794 nM, the IC50 (Aurora kinase B) is reported as 158 nM and the IC50 (TGF-beta receptor type-1) is reported as greater than 10 µM. The IC50 [2] was greater than 10 µM.

`CC[C@@H]1COCCN1c1cc(-c2ccc3c(N)n[nH]c3c2)nc(N)n1` was tested, and the IC50 (Aurora kinase A) was 5010 nM, the IC50 (Aurora kinase B) was greater than 10000 nM and the IC50 (TGF-beta receptor type-1) was greater than 10 µM. For the same compound, the IC50 [2] was greater than 10 µM.
